Experimental data as given in patent publication US20230203098A1, “HUMAN TRANSFERRIN RECEPTOR BINDING PEPTIDE” (priority 2020, published 2023).
Read-outs that look alike come from different tables or passages of the source. Where a SMILES comes first, the peptide text is derived from it. Bridges are numbered along the chain shown (N, C = ends). [ ]: non-standard residue; d: D form. NMePhe(3-Cl) = CN[C@@H](Cc1cccc(Cl)c1)C(=O)O; NMeW = CN[C@@H](Cc1c[nH]c2ccccc12)C(=O)O; Lys(N3) = [N-]=[N+]=NCCCC[C@H](N)C(=O)O; NMeY = CN[C@@H](Cc1ccc(O)cc1)C(=O)O

Target: transferrin receptor (hTfR) (Homo sapiens, UniProt P02786)
Experiment: Intermolecular interaction evaluation test between transferrin receptor (hTfR) and peptide by surface plasmon resonance (SPR)
Format: binding
In short: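 Receptor was Ni-captured and EDC/NHS-fixed on an NTA chip; running buffer HEPES pH 8.0 with NaCl, Tween 20, BSA and 1.0% DMSO.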

[1] = surface plasmon resonance, hTfR, read-out: KD value for hTfR by SPR (class symbol)
[2] = SPR, peptides, linker-added peptides and FITC conjugates, Patent ID 203-230, read-out: KD
[3] = surface plasmon resonance, peptide vs hTfR, read-out: KD value for hTfR by SPR (class symbol)
[4] = binding to hTfR by SPR, Table 2 peptides, read-out: KD value (SPR) class

Chain of transferrin receptor (hTfR) (P02786 whole entry): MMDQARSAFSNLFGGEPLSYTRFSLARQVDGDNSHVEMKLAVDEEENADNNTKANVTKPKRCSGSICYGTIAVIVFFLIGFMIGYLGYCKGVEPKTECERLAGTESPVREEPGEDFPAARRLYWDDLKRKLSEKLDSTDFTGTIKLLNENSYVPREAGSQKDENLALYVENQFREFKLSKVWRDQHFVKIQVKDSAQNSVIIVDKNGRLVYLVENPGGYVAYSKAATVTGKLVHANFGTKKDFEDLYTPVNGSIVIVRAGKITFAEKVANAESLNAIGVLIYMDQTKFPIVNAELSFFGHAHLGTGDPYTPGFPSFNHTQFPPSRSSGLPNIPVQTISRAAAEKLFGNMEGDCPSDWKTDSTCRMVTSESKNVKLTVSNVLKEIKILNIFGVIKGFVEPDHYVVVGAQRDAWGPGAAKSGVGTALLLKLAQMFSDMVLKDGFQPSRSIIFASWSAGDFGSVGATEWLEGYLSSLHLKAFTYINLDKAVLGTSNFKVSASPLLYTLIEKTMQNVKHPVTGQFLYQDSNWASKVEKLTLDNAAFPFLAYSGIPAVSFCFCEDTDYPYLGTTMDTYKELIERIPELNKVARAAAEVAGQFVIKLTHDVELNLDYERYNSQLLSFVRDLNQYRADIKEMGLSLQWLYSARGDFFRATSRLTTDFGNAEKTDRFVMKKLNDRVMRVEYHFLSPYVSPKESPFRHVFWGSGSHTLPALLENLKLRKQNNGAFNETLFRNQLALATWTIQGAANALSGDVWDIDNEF

## CC[C@H](C)[C@@H]1NC(=O)[C@H](Cc2ccc(OC)cc2)NC(=O)[C@H](Cc2ccc(O)cc2)NC(=O)[C@H](CC(N)=O)NC(=O)[C@H](Cc2c[nH]c3ccccc23)N(C)C(=O)[C@H](C(C)C)NC(=O)[C@H](Cc2cccc(Cl)c2)N(C)C(=O)[C@H](C(C)C)NC(=O)[C@H](C)NC(=O)CSC[C@@H](C(N)=O)NC(=O)[C@H](Cc2ccc(O)cc2)N(C)C(=O)[C@H](Cc2ccccc2)NC(=O)[C@@H](CCCNC(=N)N)NC(=O)[C@H](CCC(=O)NCCOCCOCCOCCOCCOCCOCCOCCOC)NC(=O)[C@H]([C@@H](C)CC)NC1=O [compound 363]
[1]
  Kd: 1 to 100 nM

## CC[C@H](C)[C@@H]1NC(=O)[C@H](Cc2ccc(OC)cc2)NC(=O)[C@H](Cc2ccc(O)cc2)NC(=O)[C@H](CC(N)=O)NC(=O)[C@H](Cc2c[nH]c3ccccc23)N(C)C(=O)[C@H](C(C)C)NC(=O)[C@H](Cc2cccc(Cl)c2)N(C)C(=O)[C@H](C(C)C)NC(=O)[C@H](C)NC(=O)CSC[C@@H](C(N)=O)NC(=O)[C@H](Cc2ccc(O)cc2)N(C)C(=O)[C@H](Cc2ccccc2)NC(=O)[C@@H](CCCNC(=N)N)NC(=O)C2(CCN(C)CC2)NC(=O)[C@H]([C@@H](C)CC)NC1=O [compound 364]
[1]
  Kd: 1 to 100 nM

## CC[C@H](C)[C@@H]1NC(=O)[C@H](Cc2ccc(OC)cc2)NC(=O)[C@H](Cc2ccc(O)cc2)NC(=O)[C@H](CC(N)=O)NC(=O)[C@H](Cc2c[nH]c3ccccc23)N(C)C(=O)[C@H](C(C)C)NC(=O)[C@H](Cc2cccc(Cl)c2)N(C)C(=O)[C@H](CCC(=O)O)NC(=O)[C@H](C)NC(=O)CSC[C@@H](C(N)=O)NC(=O)[C@H](CCCNC(=N)N)NC(=O)[C@H](Cc2ccccc2)NC(=O)[C@H](CCCNC(=N)N)NC(=O)[C@H](CC(=O)O)NC(=O)[C@H]([C@@H](C)CC)NC1=O [compound 227] ({CH2CO}-AE[NMePhe(3-Cl)]V[NMeW]NYY(Me)IIDRFRC-NH2; thioether N-15)
[2]
  Kd: 1 to 100 nM

## CC[C@H](C)[C@@H]1NC(=O)[C@H](Cc2ccc(O)cc2)NC(=O)[C@H](Cc2ccc(O)cc2)NC(=O)[C@H](CC(N)=O)NC(=O)[C@H](Cc2c[nH]c3ccccc23)NC(=O)[C@H](C(C)C)NC(=O)[C@H](Cc2ccccc2)N(C)C(=O)[C@H](C(C)C)NC(=O)[C@H](C)NC(=O)CSC[C@@H](C(=O)NCC(=O)N[C@H](CCC(=O)O)C(=O)N[C@H](CCC(=O)O)C(=O)N[C@H](CCC(=O)O)C(=O)NCC(=O)N[C@H](CCCCN)C(N)=O)NC(=O)[C@H](Cc2ccc(O)cc2)N(C)C(=O)[C@H](Cc2ccc(O)cc2)NC(=O)[C@H](CCCNC(=N)N)NC(=O)[C@H](CCCNC(=N)N)NC(=O)[C@H]([C@@H](C)CC)NC1=O [compound 444]
[3]
  Kd: 1 to 100 nM

## CC[C@H](C)[C@@H]1NC(=O)[C@H](Cc2ccc(O)cc2)NC(=O)[C@H](Cc2ccc(O)cc2)NC(=O)[C@H](CC(N)=O)NC(=O)[C@H](Cc2c[nH]c3ccccc23)NC(=O)[C@H](C(C)C)NC(=O)[C@H](Cc2ccccc2)NC(=O)[C@H](C(C)C)NC(=O)[C@H](C)NC(=O)CSC[C@@H](C(=O)NCC(=O)NCC(=O)N[C@@H](CO)C(=O)NCC(=O)N[C@@H](CO)C(=O)NCC(=O)N[C@@H](CCCCNC(=O)C2CCC(CN3C(=O)C=CC3=O)CC2)C(N)=O)NC(=O)[C@H](Cc2ccc(O)cc2)NC(=O)[C@H](Cc2ccccc2)NC(=O)[C@H](CCCNC(=N)N)NC(=O)[C@H](CCCNC(=N)N)NC(=O)[C@H]([C@@H](C)CC)NC1=O (some centres unmarked) [compound 262]
[4]
  Kd: 100 to 1000 nM

## CC[C@H](C)[C@@H]1NC(=O)[C@H](Cc2ccc(O)cc2)NC(=O)[C@H](Cc2ccc(O)cc2)NC(=O)[C@H](CC(N)=O)NC(=O)[C@H](Cc2c[nH]c3ccccc23)N(C)C(=O)[C@H](C(C)C)NC(=O)[C@H](Cc2cccc(Cl)c2)N(C)C(=O)[C@@H]2CCC(=O)NCCCCC[C@H](NC(=O)[C@H]([C@@H](C)CC)NC1=O)C(=O)N[C@@H](CCCNC(=N)N)C(=O)N[C@@H](Cc1ccc(O)cc1)C(=O)N(C)[C@@H](Cc1ccc(O)cc1)C(=O)N[C@H](C(N)=O)CSCC(=O)N[C@@H](C)C(=O)N2 [compound 411]
[3]
  Kd: 1 to 100 nM

## CC[C@H](C)[C@@H]1NC(=O)[C@H](Cc2ccc(OC)cc2)NC(=O)[C@H](Cc2ccc(O)cc2)NC(=O)[C@H](CC(N)=O)NC(=O)[C@H](Cc2c[nH]c3ccccc23)N(C)C(=O)[C@H](C(C)C)NC(=O)[C@H](Cc2cccc(Cl)c2)N(C)C(=O)[C@H](CCC(=O)O)NC(=O)[C@H](C)NC(=O)CSC[C@@H](C(=O)NCC(=O)N[C@@H](CCCCN=[N+]=[N-])C(N)=O)NC(=O)[C@H](Cc2ccc(O)cc2)N(C)C(=O)[C@H](Cc2ccccc2)NC(=O)[C@@H](CCCNC(=N)N)NC(=O)[C@H](CCCNC(=N)N)NC(=O)[C@H](CCC(=O)O)NC1=O [compound 224] ({CH2CO}-AE[NMePhe(3-Cl)]V[NMeW]NYY(Me)IER[dR]F[NMeY]CG[Lys(N3)]-NH2; thioether N-15)
[2]
  Kd: 1 to 100 nM

## CC[C@H](C)[C@@H]1NC(=O)[C@H](Cc2ccc(O)cc2)NC(=O)[C@H](Cc2ccc(O)cc2)NC(=O)[C@H](CC(N)=O)NC(=O)[C@H](Cc2c[nH]c3ccccc23)NC(=O)[C@H](C(C)C)NC(=O)[C@H](Cc2ccccc2)NC(=O)[C@H](C(C)C)NC(=O)[C@H](C)NC(=O)CSC[C@@H](C(N)=O)NC(=O)[C@H](Cc2ccc(O)cc2)N(C)C(=O)[C@H](Cc2ccc(O)cc2)NC(=O)[C@H](CCCNC(=N)N)NC(=O)[C@H](CCCCN)N(C)C(=O)[C@H]([C@@H](C)CC)NC1=O [compound 254]
[4]
  Kd: 1 to 100 nM

## CC[C@H](C)[C@@H]1NC(=O)[C@H](Cc2ccc(O)cc2)NC(=O)[C@H](Cc2ccc(O)cc2)NC(=O)[C@H](CC(N)=O)NC(=O)[C@H](Cc2c[nH]c3ccccc23)NC(=O)[C@H](C(C)C)NC(=O)[C@H](Cc2ccccc2)N(C)C(=O)[C@H](C(C)C)NC(=O)[C@H](C)NC(=O)CSC[C@@H](C(=O)NCC(=O)N[C@@H](CCCCN=[N+]=[N-])C(N)=O)NC(=O)[C@H](Cc2ccc(O)cc2)N(C)C(=O)[C@H](Cc2ccc(O)cc2)NC(=O)[C@H](CCCNC(=N)N)NC(=O)[C@H](CCCNC(=N)N)NC(=O)[C@H]([C@@H](C)CC)NC1=O [compound 297]
Surface plasmon resonance, peptide vs hTfR, read-out: KD value, hTfR binding by SPR (class symbol)
  Kd: 1 to 100 nM

## CC[C@H](C)[C@@H]1NC(=O)[C@H](Cc2ccc(O)cc2)NC(=O)[C@H](Cc2ccc(O)cc2)NC(=O)[C@H](CC(N)=O)NC(=O)[C@H](Cc2c[nH]c3ccccc23)NC(=O)[C@H](C(C)C)NC(=O)[C@H](Cc2ccccc2)N(C)C(=O)[C@H](C(C)C)NC(=O)[C@H](C)NC(=O)CSC[C@@H](C(=O)NCC(=O)NCC(=O)NCC(=O)N[C@@H](CO)C(=O)N[C@@H](CO)C(=O)N[C@@H](CCCCNC(=O)C2CCC(CN3C(=O)C=CC3=O)CC2)C(N)=O)NC(=O)[C@H](Cc2ccc(O)cc2)N(C)C(=O)[C@H](Cc2ccc(O)cc2)NC(=O)[C@H](CCCNC(=N)N)NC(=O)[C@H](CCCNC(=N)N)NC(=O)[C@H]([C@@H](C)CC)NC1=O (some centres unmarked) [compound 187]
hTfR binding by SPR, hTfR No. 894 variant peptides, linker-added peptides and payload conjugates (Table 2), read-out: KD value obtained from the SPR measurement
  Kd: 1 to 100 nM

## CC[C@H](C)[C@@H]1NC(=O)[C@H](Cc2ccc(OC)cc2)NC(=O)[C@H](Cc2ccc(O)cc2)NC(=O)[C@H](CC(N)=O)NC(=O)[C@H](Cc2c[nH]c3ccccc23)N(C)C(=O)[C@H](C(C)C)NC(=O)[C@H](Cc2cccc(Cl)c2)N(C)C(=O)[C@H](C(C)C)NC(=O)[C@H](C)NC(=O)CSC[C@@H](C(=O)NCC(=O)NCC(=O)NCC(=O)NCC(=O)N[C@@H](CO)C(=O)N[C@@H](CO)C(=O)N[C@@H](CS)C(N)=O)NC(=O)[C@H](Cc2ccc(O)cc2)N(C)C(=O)[C@H](Cc2ccccc2)NC(=O)[C@@H](CCCNC(=N)N)NC(=O)[C@H](CN)NC(=O)[C@H]([C@@H](C)CC)NC1=O [compound 367]
  Kd: 1 to 100 nM
